Laboratory results published in patent US20240158446A1, “CYCLIC COMPOUND HAVING SELECTIVE INHIBITORY ACTION ON KRAS OVER HRAS AND NRAS” (CHUGAI SEIYAKU KABUSHIKI KAISHA, priority 2021, published 2024).

Legend:
[1] = molecular target: GDP-bound HRAS wild-type protein (Homo sapiens, UniProt P01112); assay: Binding to HRAS by surface plasmon resonance (SPR), Single Cycle Kinetics; settings: SPR, GDP-bound HRAS wild-type protein vs GDP-bound KRAS wild-type protein
[2] = molecular target: GDP-bound KRAS wild-type protein (Homo sapiens, UniProt P01116); assay: Binding to KRAS by surface plasmon resonance (SPR), Single Cycle Kinetics; settings: SPR, Single Cycle Kinetics, GDP-bound KRAS wild-type protein; read-out: KRAS KD
[3] = molecular target: GDP-bound NRAS wild-type protein (Homo sapiens, UniProt P01111); assay: Binding to NRAS by surface plasmon resonance (SPR), Single Cycle Kinetics; settings: SPR, GDP-bound NRAS wild-type protein vs GDP-bound KRAS wild-type protein
Chain of GDP-bound NRAS wild-type protein (P01111 whole entry): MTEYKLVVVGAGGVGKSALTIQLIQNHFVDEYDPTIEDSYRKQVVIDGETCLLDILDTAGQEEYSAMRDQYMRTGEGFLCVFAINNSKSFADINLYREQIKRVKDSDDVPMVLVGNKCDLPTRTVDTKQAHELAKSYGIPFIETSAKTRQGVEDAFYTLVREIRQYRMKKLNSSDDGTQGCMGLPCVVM

Chain of GDP-bound HRAS wild-type protein (P01112 whole entry): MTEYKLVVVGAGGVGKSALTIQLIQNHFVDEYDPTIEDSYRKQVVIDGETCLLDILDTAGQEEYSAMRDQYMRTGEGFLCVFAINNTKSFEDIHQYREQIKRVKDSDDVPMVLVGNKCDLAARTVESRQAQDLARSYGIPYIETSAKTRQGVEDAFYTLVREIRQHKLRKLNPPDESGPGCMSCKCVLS
Chain of GDP-bound KRAS wild-type protein (P01116 whole entry): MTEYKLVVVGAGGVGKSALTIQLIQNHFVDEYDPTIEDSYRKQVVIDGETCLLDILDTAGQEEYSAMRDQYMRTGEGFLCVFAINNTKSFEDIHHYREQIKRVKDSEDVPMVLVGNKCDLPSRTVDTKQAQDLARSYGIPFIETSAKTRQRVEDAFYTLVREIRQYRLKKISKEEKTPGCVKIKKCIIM

With `CCO[C@@H]1C[C@H]2C(=O)NC3(CCC3)C(=O)N(C)[C@@H](C3CCCC3)C(=O)N(C)[C@H](C(=O)N(C)C)CC(=O)N(C)[C@@H](Cc3cccc(F)c3)C(=O)N[C@@H]([C@@H](C)CC)C(=O)N(C)CC(=O)N(C)[C@H]3CCCCCN(C3=O)[C@@H](Cc3ccc(C(F)(F)F)cc3)C(=O)N(C)CC(=O)N[C@@H](CCc3cc(F)c(C(F)(F)F)c(F)c3)C(=O)N2C1` [PP0935] the “HRAS/KRAS (ratio of KD value for HRAS to KD value for KRAS)” value [1] was “B (a compound having 3 or more and less than 10 is denoted as B)”, the Kd [2] was 0.43 nM and the “NRAS/KRAS (ratio of KD value for NRAS to KD value for KRAS)” value [3] was “B (a compound having 3 or more and less than 10 is denoted as B)”.
For `CCO[C@@H]1C[C@H]2C(=O)NC3(CCC3)C(=O)N(C)[C@@H](C3CCCC3)C(=O)N(C)[C@H](C(=O)N(C)C)CC(=O)N(C)[C@@H](Cc3ccc(F)cc3)C(=O)N[C@@H]([C@@H](C)CC)C(=O)N(C)CC(=O)N(C)[C@H]3CCCCCN(C3=O)[C@@H](Cc3ccc(C(F)(F)F)cc3)C(=O)N(C)CC(=O)N[C@@H](CCc3cc(F)c(C(F)(F)F)c(F)c3)C(=O)N2C1` [PP0936], the “HRAS/KRAS (ratio of KD value for HRAS to KD value for KRAS)” value [1] was “B (a compound having 3 or more and less than 10 is denoted as B)”, the Kd [2] was 0.42 nM and the “NRAS/KRAS (ratio of KD value for NRAS to KD value for KRAS)” value [3] was “B (a compound having 3 or more and less than 10 is denoted as B)”.
`CCO[C@@H]1C[C@H]2C(=O)NC3(CCC3)C(=O)N(C)[C@@H](C3CCCC3)C(=O)N(C)[C@H](C(=O)N(C)C)CC(=O)N(C)[C@@H](Cc3cccc(Cl)c3)C(=O)N[C@@H]([C@@H](C)CC)C(=O)N(C)CC(=O)N(C)[C@H]3CCCCCN(C3=O)[C@@H](Cc3ccc(C(F)(F)F)cc3)C(=O)N(C)CC(=O)N[C@@H](CCc3cc(F)c(C(F)(F)F)c(F)c3)C(=O)N2C1` [PP0939] was tested, and the “HRAS/KRAS (ratio of KD value for HRAS to KD value for KRAS)” value [1] was “B (a compound having 3 or more and less than 10 is denoted as B)”, the Kd [2] was 0.91 nM and the “NRAS/KRAS (ratio of KD value for NRAS to KD value for KRAS)” value [3] was “B (a compound having 3 or more and less than 10 is denoted as B)”.
In the case of `CCO[C@@H]1C[C@H]2C(=O)NC3(CCC3)C(=O)N(C)[C@@H](C3CCCC3)C(=O)N(C)[C@H](C(=O)N(C)C)CC(=O)N(C)[C@@H](Cc3ccc(Cl)cc3)C(=O)N[C@@H]([C@@H](C)CC)C(=O)N(C)CC(=O)N(C)[C@H]3CCCCCN(C3=O)[C@@H](Cc3ccc(C(F)(F)F)cc3)C(=O)N(C)CC(=O)N[C@@H](CCc3cc(F)c(C(F)(F)F)c(F)c3)C(=O)N2C1` [PP0940], the “HRAS/KRAS (ratio of KD value for HRAS to KD value for KRAS)” value [1] is reported as “C (A compound having a KD ratio of 0.1 or more and less than 3 is denoted as C)”, the Kd [2] is reported as 2 nM and the “NRAS/KRAS (ratio of KD value for NRAS to KD value for KRAS)” value [3] is reported as “B (a compound having 3 or more and less than 10 is denoted as B)”.
With `CCO[C@@H]1C[C@H]2C(=O)NC3(CCC3)C(=O)N(C)[C@@H](C3CCCC3)C(=O)N(C)[C@H](C(=O)N(C)C)CC(=O)N(C)[C@@H](Cc3cccc(C)c3)C(=O)N[C@@H]([C@@H](C)CC)C(=O)N(C)CC(=O)N(C)[C@H]3CCCCCN(C3=O)[C@@H](Cc3ccc(C(F)(F)F)cc3)C(=O)N(C)CC(=O)N[C@@H](CCc3cc(F)c(C(F)(F)F)c(F)c3)C(=O)N2C1` [PP0942] the “HRAS/KRAS (ratio of KD value for HRAS to KD value for KRAS)” value [1] was “B (a compound having 3 or more and less than 10 is denoted as B)”, the Kd [2] was 0.99 nM and the “NRAS/KRAS (ratio of KD value for NRAS to KD value for KRAS)” value [3] was “B (a compound having 3 or more and less than 10 is denoted as B)”.
`CCO[C@@H]1C[C@H]2C(=O)NC3(CCC3)C(=O)N(C)[C@@H](C3CCCC3)C(=O)N(C)[C@H](C(=O)N(C)C)CC(=O)N(C)[C@@H](Cc3ccc(C)cc3)C(=O)N[C@@H]([C@@H](C)CC)C(=O)N(C)CC(=O)N(C)[C@H]3CCCCCN(C3=O)[C@@H](Cc3ccc(C(F)(F)F)cc3)C(=O)N(C)CC(=O)N[C@@H](CCc3cc(F)c(C(F)(F)F)c(F)c3)C(=O)N2C1` [PP0943] was tested, and the “HRAS/KRAS (ratio of KD value for HRAS to KD value for KRAS)” value [1] was “B (a compound having 3 or more and less than 10 is denoted as B)”, the Kd [2] was 1.1 nM and the “NRAS/KRAS (ratio of KD value for NRAS to KD value for KRAS)” value [3] was “B (a compound having 3 or more and less than 10 is denoted as B)”.
In the case of `CCO[C@@H]1C[C@H]2C(=O)NC3(CCC3)C(=O)N(C)[C@@H](C3CCCC3)C(=O)N(CC)[C@H](C(=O)N3CCOCC3)CC(=O)N(C)[C@@H](CC)C(=O)N[C@@H]([C@@H](C)CC)C(=O)N(C)CC(=O)N(C)[C@H]3CCCCCN(C3=O)[C@@H](Cc3ccc(C(F)(F)F)cc3)C(=O)N(C)CC(=O)N[C@@H](CCc3cc(F)c(C(F)(F)F)c(F)c3)C(=O)N2C1` [PP0944], the “HRAS/KRAS (ratio of KD value for HRAS to KD value for KRAS)” value [1] is reported as “A (a compound having 10 or more and less than 20 is denoted as A)”, the Kd [2] is reported as 3.9 nM and the “NRAS/KRAS (ratio of KD value for NRAS to KD value for KRAS)” value [3] is reported as “A (a compound having 10 or more and less than 20 is denoted as A)”.
With `CCO[C@@H]1C[C@H]2C(=O)NC3(CCC3)C(=O)N(C)[C@@H](C3CCCC3)C(=O)N(CC)[C@H](C(=O)N3CCOCC3)CC(=O)N(C)[C@@H](CO)C(=O)N[C@@H]([C@@H](C)CC)C(=O)N(C)CC(=O)N(C)[C@H]3CCCCCN(C3=O)[C@@H](Cc3ccc(C(F)(F)F)cc3)C(=O)N(C)CC(=O)N[C@@H](CCc3cc(F)c(C(F)(F)F)c(F)c3)C(=O)N2C1` [PP0945] the “HRAS/KRAS (ratio of KD value for HRAS to KD value for KRAS)” value [1] was “A (a compound having 10 or more and less than 20 is denoted as A)”, the Kd [2] was 3.7 nM and the “NRAS/KRAS (ratio of KD value for NRAS to KD value for KRAS)” value [3] was “B (a compound having 3 or more and less than 10 is denoted as B)”.
With `CCO[C@@H]1C[C@H]2C(=O)NC3(CCC3)C(=O)N(C)[C@@H](C3CCCC3)C(=O)N(CC)[C@H](C(=O)N3CCOCC3)CC(=O)N(C)[C@@H](COC)C(=O)N[C@@H]([C@@H](C)CC)C(=O)N(C)CC(=O)N(C)[C@H]3CCCCCN(C3=O)[C@@H](Cc3ccc(C(F)(F)F)cc3)C(=O)N(C)CC(=O)N[C@@H](CCc3cc(F)c(C(F)(F)F)c(F)c3)C(=O)N2C1` [PP0946] the “HRAS/KRAS (ratio of KD value for HRAS to KD value for KRAS)” value [1] was “B (a compound having 3 or more and less than 10 is denoted as B)”, the Kd [2] was 2.2 nM and the “NRAS/KRAS (ratio of KD value for NRAS to KD value for KRAS)” value [3] was “A (a compound having 10 or more and less than 20 is denoted as A)”.
With `CCO[C@@H]1C[C@H]2C(=O)NC3(CCC3)C(=O)N(C)[C@@H](C3CCCC3)C(=O)N(CC)[C@H](C(=O)N3CCOCC3)CC(=O)N(C)[C@@H](CCOC)C(=O)N[C@@H]([C@@H](C)CC)C(=O)N(C)CC(=O)N(C)[C@H]3CCCCCN(C3=O)[C@@H](Cc3ccc(C(F)(F)F)cc3)C(=O)N(C)CC(=O)N[C@@H](CCc3cc(F)c(C(F)(F)F)c(F)c3)C(=O)N2C1` [PP0947] the “HRAS/KRAS (ratio of KD value for HRAS to KD value for KRAS)” value [1] was “A (a compound having 10 or more and less than 20 is denoted as A)”, the Kd [2] was 3.4 nM and the “NRAS/KRAS (ratio of KD value for NRAS to KD value for KRAS)” value [3] was “A (a compound having 10 or more and less than 20 is denoted as A)”.
For `CCO[C@@H]1C[C@H]2C(=O)NC3(CCC3)C(=O)N(C)[C@@H](C3CCCC3)C(=O)N(CC)[C@H](C(=O)N3CCOCC3)CC(=O)N(C)[C@@H](Cc3ccccc3)C(=O)N[C@@H]([C@@H](C)CC)C(=O)N(C)CC(=O)N(C)[C@H]3CCCCCN(C3=O)[C@@H](Cc3ccc(C(F)(F)F)cc3)C(=O)N(C)CC(=O)N[C@@H](CCc3cc(F)c(C(F)(F)F)c(F)c3)C(=O)N2C1` [PP0950], the “HRAS/KRAS (ratio of KD value for HRAS to KD value for KRAS)” value [1] was “B (a compound having 3 or more and less than 10 is denoted as B)”, the Kd [2] was 6 nM and the “NRAS/KRAS (ratio of KD value for NRAS to KD value for KRAS)” value [3] was “A (a compound having 10 or more and less than 20 is denoted as A)”.
With `CCO[C@@H]1C[C@H]2C(=O)NC3(CCC3)C(=O)N(C)[C@@H](C3CCCC3)C(=O)N(CC)[C@H](C(=O)N3CCOCC3)CC(=O)N(C)[C@@H](CCc3ccccc3)C(=O)N[C@@H]([C@@H](C)CC)C(=O)N(C)CC(=O)N(C)[C@H]3CCCCCN(C3=O)[C@@H](Cc3ccc(C(F)(F)F)cc3)C(=O)N(C)CC(=O)N[C@@H](CCc3cc(F)c(C(F)(F)F)c(F)c3)C(=O)N2C1` [PP0953] the “HRAS/KRAS (ratio of KD value for HRAS to KD value for KRAS)” value [1] was “A (a compound having 10 or more and less than 20 is denoted as A)”, the Kd [2] was 27 nM and the “NRAS/KRAS (ratio of KD value for NRAS to KD value for KRAS)” value [3] was “A (a compound having 10 or more and less than 20 is denoted as A)”.
In the case of `CC[C@H](C)[C@@H]1NC(=O)[C@H](CC(C)C)N(C)C(=O)C[C@@H](C(=O)N2CCOCC2)N(CC)C(=O)[C@H](C2CCCC2)N(C)C(=O)C2(CCC2)NC(=O)[C@@H]2[C@H](O)CCN2C(=O)[C@H](CCc2cc(F)c(C(F)(F)F)c(F)c2)NC(=O)CN(C)C(=O)[C@H](Cc2ccc(C(F)(F)F)cc2)N2CCCCC[C@@H](C2=O)N(C)C(=O)CN(C)C1=O` [PP0955], the “HRAS/KRAS (ratio of KD value for HRAS to KD value for KRAS)” value [1] is reported as “A (a compound having 10 or more and less than 20 is denoted as A)”, the Kd [2] is reported as 19 nM and the “NRAS/KRAS (ratio of KD value for NRAS to KD value for KRAS)” value [3] is reported as “A (a compound having 10 or more and less than 20 is denoted as A)”.
In the case of `CCO[C@@H]1C[C@H]2C(=O)NC3(CC=CC3)C(=O)N(C)[C@@H](C3CCCC3)C(=O)N(CC)[C@H](C(=O)N3CCOCC3)CC(=O)N(C)[C@@H](CC(C)C)C(=O)N[C@@H]([C@@H](C)CC)C(=O)N(C)CC(=O)N(C)[C@H]3CCCCCN(C3=O)[C@@H](Cc3ccc(C(F)(F)F)cc3)C(=O)N(C)CC(=O)N[C@@H](CCc3cc(F)c(C(F)(F)F)c(F)c3)C(=O)N2C1` [PP0956], the “HRAS/KRAS (ratio of KD value for HRAS to KD value for KRAS)” value [1] is reported as “A (a compound having 10 or more and less than 20 is denoted as A)”, the Kd [2] is reported as 7.2 nM and the “NRAS/KRAS (ratio of KD value for NRAS to KD value for KRAS)” value [3] is reported as “A (a compound having 10 or more and less than 20 is denoted as A)”.
